{"source": "patent US5976797A", "about": "“Method for quantifying total mRNA with poly(A)-complementary oligonucleotide-immobilized microtiter plate” (Hitachi Chemical Co., Ltd., priority 1996, dated 1999)", "key": {"[1]": {"tested_on": "U937 cells", "assay": "quantification of cytosolic mRNA after PMA-induced differentiation, U937 cells", "type": "cell-based, human", "source_text": "(§1) We obtained from the respective suppliers human Jurkat, Molt-4, U937, and HL-60 cells (American Type Culture Collection, Rockville, Md.); MICROFAST TRACK™ 228 Kit (mRNA purification kit using oligo-(dT) cellulose, (Invitrogen, San Diego, Calif.); cell culture media, fetal calf serum, (FCS: fatal calf serum), phosphate-buffered saline (PBS: phosphate-buffered saline), rabbit globin mRNA, and vanadyl-ribonucleosidecomplex (VRC: vanadyl-ribonucleoside complex; Gibco-BRL, Baithersburg, Md.); Isolymph (Gallard-Schlesinger, Carle Place, N.Y.); calf thymus DNA (Clontech, Palo Alto, Calif.); DNase (Boehringer Mannheim, Indianapolis, Ind.); RNase (Stratagene, La Jolla, Calif.); and GENEPLATE™ (oligonucleotide-immobilized microplate,(Hitachi Chemical Research Center, Irvine Calif. and Hitachi Chemical Co., Ibaraki, Japan). All other chemicals were purchased from Sigma Chemical Co. (St. Louis, Mis.). Oligonucleotides were synthesized by a synthesizer (Applied Biosystems, San Jose, Calif.), according to the manufacturer's protocol.\n(§2) Human Jurkat and Molt-4 cells were grown in RPMI 1640 containing 100 U/mL penicillin, 100 μg/mL streptomycin, and 100 mL/L FCS at 37° C. in CO2 :air, 5:95 (by vol). […] Each cell line was subcultured two to three times a week, and viability was always >90%, as assessed by the exclusion of trypan blue. The number of cells was determined with a hemocytometer. […]"}, "[2]": {"tested_on": "HL-60 cells", "assay": "quantification of cytosolic mRNA after PMA-induced differentiation, HL-60 cells", "type": "cell-based, human", "source_text": "as §1, §2"}, "[3]": {"details": "48 h after PMA treatment (160 nmol/L), n=8, P<0.01"}, "[4]": {"details": "phorbol ester-induced differentiated"}}}
{"smiles": "CCCCCCCCCCCCCC(=O)O[C@@H]1[C@@H](C)[C@@]2(O)[C@@H](C=C(CO)C[C@]3(O)C(=O)C(C)=C[C@@H]23)[C@@H]2C(C)(C)[C@]12OC(C)=O", "note": "[PMA, phorbol 12-myristate 13-acetate]", "values": [{"measurement": "mRNA content in 10^6 differentiated U937 cells", "setting": "[1]; [3]", "value": "145.3±13.9", "unit": "μg/mL"}, {"measurement": "amount of cytosolic mRNA in differentiated U937 cells", "setting": "[1]; [4]", "value": "145.3±13.9", "unit": "ng/10^6 cells"}, {"measurement": "mRNA content in 10^6 differentiated HL-60 cells", "setting": "[2]; [3]", "value": "164.7±11.6", "unit": "μg/mL"}, {"measurement": "amount of cytosolic mRNA in differentiated HL-60 cells", "setting": "[2]; [4]", "value": "164.7±11.6", "unit": "ng/10^6 cells"}]}
